Measurements published in patent US5242943A, “3-aminopropoxyphenyl derivatives, their preparation and pharmaceutical compositions containing them” (Louis; William J., priority 1984, dated 1993).

Legend:
tracheal muscle = test: Tracheal preparations of the guinea pig, blockade of isoproterenol relaxation; assay type: cell-based; conditions: for blocking effect of the responses to isoproterenol in the trachea: at concentrations as high as 3×10^-5 mol/l; for selectivity for the cardiac beta 1 adrenoceptor: atria vs trachea, in words
beta adrenoceptor = biological target: T1, beta adrenoceptor (Cavia porcellus, UniProt H0W3H1); test: Inhibition of the positive chronotropic isoproterenol effect in spontaneously beating guinea pig atrium; assay type: cell-based
T1 construct: in the spontaneously beating guinea pig atrium; from tissue; host or cells: guinea pig atrium

beta-1 adrenoceptor = biological target: T2, beta-1 adrenoceptor (Rattus norvegicus, UniProt P18090); test: Inhibition of isoproterenol induced tachycardia in the pithed rat; assay type: in vivo; conditions: read-out: Effective Dose (ID50)
T2 construct: from tissue; host or cells: heart of the pithed rat, in vivo

[1] = test system: cardiac contractile force; test: Cardiac contractile force in anaesthetised, vagotomized, spinalised cat; assay type: in vivo; conditions: in words
Method: In the anaesthetised, vagotomized cat spinalised at the level of second cervical vertebrae the compounds exert an increase in cardiac contractile force at a dose of from about 20 to about 2,500 ug/kg i.v. as measured with a strain gauge arch sewn into the left ventricle. The effect may also be measured as a concentration dependent stimulation of the isolated spontaneously beating guinea pig atrium.

T2 sequence (P18090 whole entry): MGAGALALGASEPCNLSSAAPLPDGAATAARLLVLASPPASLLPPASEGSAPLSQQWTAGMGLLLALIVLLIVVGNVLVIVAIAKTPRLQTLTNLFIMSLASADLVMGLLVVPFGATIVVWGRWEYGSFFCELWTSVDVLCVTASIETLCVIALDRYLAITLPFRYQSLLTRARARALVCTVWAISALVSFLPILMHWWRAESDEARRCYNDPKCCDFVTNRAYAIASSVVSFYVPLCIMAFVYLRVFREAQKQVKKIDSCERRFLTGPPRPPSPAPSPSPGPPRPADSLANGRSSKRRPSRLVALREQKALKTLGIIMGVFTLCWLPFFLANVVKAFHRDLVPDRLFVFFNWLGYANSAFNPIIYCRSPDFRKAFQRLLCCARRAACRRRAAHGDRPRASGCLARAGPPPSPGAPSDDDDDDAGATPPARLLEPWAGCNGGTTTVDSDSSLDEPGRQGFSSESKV
T1 sequence (H0W3H1 1-470): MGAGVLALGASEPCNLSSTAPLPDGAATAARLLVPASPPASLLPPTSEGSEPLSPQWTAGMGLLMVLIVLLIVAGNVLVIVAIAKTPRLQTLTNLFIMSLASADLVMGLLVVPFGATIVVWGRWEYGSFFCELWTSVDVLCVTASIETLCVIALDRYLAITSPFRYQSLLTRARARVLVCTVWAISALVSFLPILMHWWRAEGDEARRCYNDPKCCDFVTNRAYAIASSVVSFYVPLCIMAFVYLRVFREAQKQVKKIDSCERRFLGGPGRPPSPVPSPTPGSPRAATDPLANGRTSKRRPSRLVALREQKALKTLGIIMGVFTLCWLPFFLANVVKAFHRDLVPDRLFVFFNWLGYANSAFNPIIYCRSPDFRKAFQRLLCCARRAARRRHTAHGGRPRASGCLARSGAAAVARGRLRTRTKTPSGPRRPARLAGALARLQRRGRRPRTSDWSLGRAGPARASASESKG

| Compound | Kb (beta adrenoceptor) [nM] | ED50 (beta-1 adrenoceptor) [mg/kg] | selectivity (tracheal muscle; guinea pig atria vs trachea, known selective beta adrenoceptor blockers) | blocking effect of the responses to isoproterenol in the trachea (tracheal muscle) | selectivity for the cardiac beta 1 adrenoceptor (tracheal muscle) | balance between the agonistic and antagonistic activities [1] |
| --- | --- | --- | --- | --- | --- | --- |
| CC(C)NCC(O)COc1ccc(CC(N)=O)cc1 (centres unmarked) [Atenolol, reference compound] |  |  | 20 |  |  |  |
| Cc1cc(OCCOCC2CC2)ccc1OCC(O)CNCCNC(=O)C1CCOCC1 (centres unmarked) [Example 1, 1-(2-Methyl-4-(2-cyclopropylmethoxyethoxy)-phenoxy)-3-(2-(tetrahydropyran-4-yl-carbonylamino)ethylamino)-2-propanol] | 120 | 0.1 |  |  |  |  |
| CCCOCCOc1ccc(OCC(O)CNCCNC(=O)C2CCOCC2)c(F)c1 (centres unmarked) [Example 2, 1-(2-fluoro-4-(2-propoxy-ethoxy)phenoxy)-3-(2-(tetrahydropyran-4-yl-carbonylamino)ethylamino)-2-propanol] | 50 | 0.02 |  | no blocking effect | virtually absolute selectivity |  |
| CCCOCCOc1ccc(OCC(O)CNCCNC(=O)C2CCOCC2)cc1 (centres unmarked) [Example 3] | 80 | 0.015 |  | no blocking effect | virtually absolute selectivity |  |
| CC(C)COCCOc1ccc(OCC(O)CNCCNC(=O)C2CCOCC2)cc1 (centres unmarked) [Example 4] | 50 | 0.02 |  | no blocking effect | virtually absolute selectivity |  |
| O=C(NCCNCC(O)COc1ccc(OCCOCC2CCCC2)cc1)C1CCOCC1 (centres unmarked) [Example 5] | 30 | 0.03 |  | no blocking effect | virtually absolute selectivity |  |
| O=C(NCCNCC(O)COc1ccc(OCCOCCc2ccc(F)cc2)cc1)C1CCOCC1 (centres unmarked) [Example 6] | 20 | 0.03 |  | no blocking effect | virtually absolute selectivity |  |
| O=C(NCCNCC(O)COc1ccc(O)cc1F)C1CCOCC1 (centres unmarked) [Example 33, 1-(2-fluoro-4-hydroxyphenoxy)-3-[2-(tetrahydropyran-4-ylcarbonylamino)ethylamino]-2-propanol] |  |  |  |  |  | particularly favourable |

Now from value to molecule, other results behind:

| Kb (beta adrenoceptor) [nM] | ED50 (beta-1 adrenoceptor) [mg/kg] | Compound | selectivity (tracheal muscle; guinea pig atria vs trachea, known selective beta adrenoceptor blockers) | blocking effect of the responses to isoproterenol in the trachea (tracheal muscle) | selectivity for the cardiac beta 1 adrenoceptor (tracheal muscle) | balance between the agonistic and antagonistic activities [1] |
| --- | --- | --- | --- | --- | --- | --- |
| 200 | 0.02 | O=C(NCCNCC(O)COc1ccc(OCCOCc2ccc(F)cc2)cc1)C1CCOCC1 (centres unmarked) [Example 7] |  |  |  |  |
| 70 | 0.02 | CCCOCCOc1ccc(OCC(O)CNCCNC(=O)C2CCOCC2)c(C#N)c1 (centres unmarked) [Example 8] |  |  |  |  |
| 40 | 0.003 | CCCOCCOc1ccc(OC[C@@H](O)CNC(C)CNC(=O)C2CCOCC2)cc1 (stereo partly drawn) [Example 9, (S)-1-(4-(2-propoxyethoxy)phenoxy)-3((R,S)-2-(tetrahydropyran-4-ylcarbonylamino)-1-methylethylamino)-2-propanol] |  |  |  | particularly favourable |
| 30 | 0.0006 | CCCOCCOc1ccc(OC[C@@H](O)CN[C@H](C)CNC(=O)C2CCOCC2)cc1 [Example 10, (S)-1-(4-(2-propoxyethoxy)phenoxy)-((R)-2-(tetrahydropyran-4-ylcarbonylamino)-1-methylethylamino)-2-propanol] |  |  |  |  |
| 160 | 0.02 | CCCOCCOc1ccc(OC[C@@H](O)CN[C@@H](C)CNC(=O)C2CCOCC2)cc1 [Example 11, (S)-1-(4-(2-propoxyethoxy)phenoxy)-3-((S)-2-(tetrahydropyran-4-yl-carbonylamino)-1-methylethylamino)-2-propanol] |  |  |  |  |
| 30 | 0.01 | C[C@H](CNC(=O)C1CCOCC1)NCC(O)COc1ccc(OCCOCC2CCCC2)cc1 (some centres unmarked) [Example 15] |  | no blocking effect | virtually absolute selectivity |  |
| 70 | 0.005 | CC(C)COCCOc1ccc(OCC(O)CN[C@H](C)CNC(=O)C2CCOCC2)cc1 (some centres unmarked) [Example 21] |  |  |  |  |
